We go through eleven molecules from ChEMBL document CHEMBL1201862, “PubChem BioAssay data set” (2004).

Among the test systems are RPMI-8226; UACC-62; HCT-15; MDA-MB-231; ACHN; EKVX; UACC-257; OVCAR-8; MDA-MB-435; SNB-19; OVCAR-5; HT-29; Hs-578T; TK-10; SK-MEL-2; NCI-H460; BT-549; T47D; CAKI-1; NCI-H226.
What all share (assay): DTP human tumour cell line panel, 48 h

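1) Cells in 96-well plates. 2) Compound, 48 h, 5 concentrations. 3) Linear interpolation between surrounding doses. 4) Unreached endpoint = highest concentration. GI50 is the concentration that inhibits growth by half.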 The source made the active and inactive calls. Rule as the data show it: active = GI50 up to about 1.1 µM and inactive = higher.

`Cc1ccc(S(=O)(=O)OC2CCN(C)CC2)cc1`: the GI50 in the assay with RPMI-8226 is 23.2 µM (inactive); in the assay with UACC-62, > 100 µM (inactive); in the assay on HCT-15, above 100 µM; in the assay on MDA-MB-231 it was > 100 µM (inactive); in the assay on ACHN, 32.6 µM (inactive); in the assay with EKVX, > 100 µM (inactive). Further, the GI50 in the assay on UACC-257 is 24.2 µM (inactive); with OVCAR-8, > 100 µM (inactive); with MDA-MB-435, > 100 µM (inactive); with SNB-19, > 100 µM (inactive); with OVCAR-5 it was > 100 µM (inactive); in the assay with HT-29, > 100 µM (inactive). In addition, the GI50 in the assay with Hs-578T was > 100 µM (inactive); in the assay on TK-10, > 100 µM (inactive); in the assay with SK-MEL-2, > 100 µM (inactive); in the assay on NCI-H460, > 100 µM (inactive); in the assay with BT-549, > 100 µM (inactive); in the assay with T47D, 23.1 µM (inactive).
For `O=C(O)CCc1c2ccc(=O)c(O)c-2oc2c(O)c(O)ccc12`, the GI50 with RPMI-8226 was 32 µM (inactive); in the assay on UACC-62 it was > 100 µM (inactive); in the assay on HCT-15, 79.4 µM; in the assay with MDA-MB-231, 20.6 µM (inactive); with ACHN, 39.1 µM (inactive); in the assay on EKVX it was 28.8 µM (inactive). Also, the GI50 in the assay with UACC-257 was > 100 µM (inactive); in the assay with OVCAR-8, 54.6 µM (inactive); with CAKI-1 it was > 100 µM (inactive); with MDA-MB-435, 17.1 µM (inactive); in the assay with SNB-19, > 100 µM (inactive); in the assay with OVCAR-5, > 100 µM (inactive). In addition, the GI50 with HT-29 is > 100 µM (inactive); in the assay with Hs-578T, 14.2 µM (inactive); in the assay on TK-10 it was > 100 µM (inactive); in the assay with SK-MEL-2, > 100 µM (inactive); with NCI-H460 it was > 100 µM (inactive); in the assay on BT-549, 87.5 µM (inactive). For the same molecule, the GI50 in the assay with T47D is > 100 µM (inactive).
On to `Nc1ccc(Cc2c(N)[nH]c(=O)[nH]c2=O)cc1`, for which the GI50 in the assay with RPMI-8226 is > 100 µM (inactive); in the assay on UACC-62, > 100 µM (inactive); with HCT-15, above 100 µM; in the assay on MDA-MB-231 it was > 100 µM (inactive); in the assay with ACHN, > 100 µM (inactive); with UACC-257 it was > 100 µM (inactive). Further, the GI50 in the assay with OVCAR-8 is > 100 µM (inactive); in the assay on CAKI-1, > 100 µM (inactive); in the assay on MDA-MB-435 it was > 100 µM (inactive); in the assay with NCI-H226 it was 86.1 µM (inactive); with SNB-19, > 100 µM (inactive); in the assay with OVCAR-5, > 100 µM (inactive). The GI50 in the assay with HT-29, with Hs-578T, with SK-MEL-2, in the assay with NCI-H460, with BT-549 and in the assay on T47D was > 100 µM (inactive) in each case.
As to `CCOC(=O)CCC(NC(=O)Cc1ccc(Oc2nc3ccccc3nc2-c2ccccc2)cc1)C(=O)OCC` (stereo not given), the GI50 is > 100 µM (inactive) in the assay with RPMI-8226; > 100 µM (inactive) with UACC-62; above 100 µM in the assay with HCT-15; > 100 µM (inactive) with MDA-MB-231; > 100 µM (inactive) in the assay on ACHN; > 100 µM (inactive) in the assay on EKVX. The GI50 was > 100 µM (inactive) with UACC-257; > 100 µM (inactive) with CAKI-1; > 100 µM (inactive) in the assay with MDA-MB-435; 19.5 µM (inactive) in the assay on NCI-H226; 50.6 µM (inactive) in the assay on SNB-19; > 100 µM (inactive) in the assay with OVCAR-5. For the same molecule, the GI50 is > 100 µM (inactive) in the assay with HT-29; 34.8 µM (inactive) in the assay with Hs-578T; 96.4 µM (inactive) in the assay on TK-10; > 100 µM (inactive) in the assay on SK-MEL-2; > 100 µM (inactive) with NCI-H460; > 100 µM (inactive) with BT-549. The GI50 with T47D was 24.9 µM (inactive).
In the case of `Cc1ccc2c(c1)C(=O)N1CCC[C@H]1C=N2`, the GI50 in the assay with RPMI-8226 is 10.1 µM (inactive); with UACC-62 it was 16.6 µM (inactive); in the assay with HCT-15, 28.5 µM; in the assay on MDA-MB-231, 19.2 µM (inactive); in the assay on ACHN it was 15 µM (inactive); with EKVX, 26.4 µM (inactive). Moreover, the GI50 in the assay on UACC-257 was 21.9 µM (inactive); in the assay on OVCAR-8 it was 23.9 µM (inactive); in the assay with CAKI-1, 15.6 µM (inactive); with MDA-MB-435, 16.7 µM (inactive); in the assay on SNB-19, 28.2 µM (inactive); in the assay on OVCAR-5 it was 28.4 µM (inactive). Moreover, the GI50 is 15.4 µM (inactive) in the assay on HT-29; 15.3 µM (inactive) with Hs-578T; 20.5 µM (inactive) with TK-10; 17.5 µM (inactive) in the assay with SK-MEL-2; 20.4 µM (inactive) in the assay with NCI-H460; 17.8 µM (inactive) in the assay on BT-549. For the same molecule, in the assay on T47D, the GI50 is 18.4 µM (inactive).
`C=CC1ON(C)CCc2cc(OC)c(OC)cc21` (stereo not given): the GI50 with RPMI-8226 was > 100 µM (inactive); with UACC-62 it was 65.6 µM (inactive); with HCT-15 it was above 100 µM; in the assay with MDA-MB-231 it was > 100 µM (inactive); in the assay with ACHN it was > 100 µM (inactive); with EKVX, > 100 µM (inactive). Besides, the GI50 in the assay with UACC-257, with OVCAR-8, with CAKI-1, with MDA-MB-435, with NCI-H226 and with SNB-19 was > 100 µM (inactive) throughout. Also, the GI50 in the assay with OVCAR-5, in the assay with HT-29, with Hs-578T, in the assay with TK-10, in the assay on NCI-H460 and in the assay with BT-549 was > 100 µM (inactive) in each case. For the same molecule, the GI50 with T47D was 83.2 µM (inactive).
For the molecule `O=c1[nH]c(=O)n(C2CC(O)C(CO)O2)cc1C1=NC1` (stereo not given), the GI50 in the assay with RPMI-8226 was 50.6 µM (inactive); in the assay with UACC-62, > 100 µM (inactive); in the assay with HCT-15 it was above 100 µM; in the assay with MDA-MB-231, > 100 µM (inactive); in the assay with ACHN, > 100 µM (inactive); in the assay with EKVX it was > 100 µM (inactive). The GI50 in the assay on UACC-257, in the assay on OVCAR-8, in the assay on MDA-MB-435, in the assay on NCI-H226, in the assay with SNB-19 and in the assay with OVCAR-5 was > 100 µM (inactive) each time. For the same molecule, the GI50 in the assay on HT-29, in the assay with Hs-578T, in the assay on TK-10, with SK-MEL-2, in the assay on NCI-H460 and in the assay with BT-549 was > 100 µM (inactive) in each case. The GI50 in the assay with T47D was 35.2 µM (inactive).
Turning to `O=C(O)C1(Cc2ccccc2)Cc2cc3c(cc2C1)CCC3`, the GI50 with RPMI-8226 was 58.1 µM (inactive); in the assay on UACC-62, > 100 µM (inactive); with HCT-15, 52.6 µM; in the assay on MDA-MB-231, > 100 µM (inactive); with ACHN it was > 100 µM (inactive); in the assay on EKVX, 54.2 µM (inactive). The GI50 in the assay with UACC-257, in the assay with OVCAR-8, in the assay on MDA-MB-435, with NCI-H226, with SNB-19 and in the assay with OVCAR-5 was > 100 µM (inactive) in each case. In addition, the GI50 in the assay on HT-29 is > 100 µM (inactive); in the assay with Hs-578T it was 75.2 µM (inactive); in the assay on TK-10, > 100 µM (inactive); in the assay on SK-MEL-2, 82 µM (inactive); in the assay with NCI-H460, 86.9 µM (inactive); in the assay on BT-549 it was > 100 µM (inactive). In addition, the GI50 with T47D was 18.3 µM (inactive).
Consider `O=c1[nH]c2nc3ccccc3c(=O)n2/c1=C/c1ccccc1`, for which the GI50 in the assay with RPMI-8226 is 34.9 µM (inactive); with UACC-62, 28.6 µM (inactive); with HCT-15 it was 29.8 µM; in the assay with MDA-MB-231, > 100 µM (inactive); in the assay with ACHN, 47 µM (inactive); in the assay on EKVX it was 35.3 µM (inactive). For the same molecule, the GI50 in the assay with UACC-257 was 23.7 µM (inactive); in the assay with OVCAR-8, 28 µM (inactive); in the assay on CAKI-1 it was 47.4 µM (inactive); in the assay on MDA-MB-435, 21.9 µM (inactive); with NCI-H226, 18.7 µM (inactive); in the assay on SNB-19 it was 19.6 µM (inactive). Also, the GI50 in the assay with OVCAR-5 was > 100 µM (inactive); in the assay on HT-29 it was 17.5 µM (inactive); in the assay with Hs-578T it was 29 µM (inactive); with TK-10, 53.8 µM (inactive); in the assay with SK-MEL-2, > 100 µM (inactive); in the assay on BT-549 it was 17.1 µM (inactive). In addition, the GI50 in the assay with T47D is 40.4 µM (inactive).
In the case of `COC(=O)C(Cc1ccccc1)NC(=O)CSc1nnc(COc2ccc(Cl)cc2)n1-c1ccccc1` (stereo not given), the GI50 with RPMI-8226 is 20.5 µM (inactive); in the assay on UACC-62 it was 14.6 µM (inactive); with HCT-15, 35.2 µM; with MDA-MB-231, 18.6 µM (inactive); in the assay with ACHN, 16.4 µM (inactive); in the assay with UACC-257, 13.1 µM (inactive). Further, the GI50 with MDA-MB-435 was 19.1 µM (inactive); in the assay on NCI-H226, 40.6 µM (inactive); with SNB-19 it was 49.9 µM (inactive); with OVCAR-5, 24.8 µM (inactive); in the assay with HT-29, 23.4 µM (inactive); in the assay on Hs-578T, 26.7 µM (inactive). Also, the GI50 with TK-10 was 19.4 µM (inactive); with SK-MEL-2, 17.7 µM (inactive); with NCI-H460 it was 16.5 µM (inactive); with BT-549 it was 27.4 µM (inactive); in the assay with T47D it was 26.1 µM (inactive).
Regarding `CC(=O)Oc1cc(S(=O)(=O)Nc2nc(N)n[nH]2)c(S)cc1Cl`, the GI50 in the assay with RPMI-8226 was > 100 µM (inactive); in the assay on UACC-62, > 100 µM (inactive); in the assay with HCT-15, above 100 µM; in the assay on MDA-MB-231 it was > 100 µM (inactive); in the assay on ACHN, > 100 µM (inactive); in the assay with EKVX it was > 100 µM (inactive). Besides, the GI50 in the assay on UACC-257, with OVCAR-8, in the assay on CAKI-1, with MDA-MB-435, with SNB-19 and with OVCAR-5 was > 100 µM (inactive) throughout. In addition, the GI50 in the assay on HT-29, in the assay with Hs-578T, with TK-10, in the assay on SK-MEL-2, with NCI-H460 and in the assay with BT-549 was > 100 µM (inactive) each time. In the assay on T47D, the GI50 is > 100 µM (inactive).

What is called GI50 is the concentration at which growth is held to half of that of the control.
